Columns and labels:
[1] = test system: Mus musculus; experiment: Reduction in insulin-induced protein tyrosine phosphorylation in liver of ob/ob mice at 10 mg/kg perorally; type: functional; conditions: route oral
[2] = target: T1, Tyrosine-protein phosphatase non-receptor type 1 (Homo sapiens, UniProt P18031); experiment: Compound was evaluated for the inhibitory activity against recombinant Protein-tyrosine phosphatase 1B using, phosphotyrosyl dodecapeptide [TRDI(P)YETD(P)Y(P)YRK] as substrate
T1 sequence (P18031 whole entry): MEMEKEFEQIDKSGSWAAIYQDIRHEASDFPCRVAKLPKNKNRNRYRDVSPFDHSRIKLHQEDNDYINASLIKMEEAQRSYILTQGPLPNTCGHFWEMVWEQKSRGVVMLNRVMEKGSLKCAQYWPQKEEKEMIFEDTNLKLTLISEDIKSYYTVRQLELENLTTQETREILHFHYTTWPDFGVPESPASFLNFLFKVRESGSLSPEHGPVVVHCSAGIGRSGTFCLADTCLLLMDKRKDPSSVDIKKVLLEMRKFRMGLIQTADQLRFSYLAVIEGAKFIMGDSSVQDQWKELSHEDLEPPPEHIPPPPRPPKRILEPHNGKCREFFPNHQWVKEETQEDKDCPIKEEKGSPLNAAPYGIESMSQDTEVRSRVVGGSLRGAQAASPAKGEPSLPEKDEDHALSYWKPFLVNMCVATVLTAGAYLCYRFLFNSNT

[3] = test system: Mus musculus; experiment: Reduction in insulin-induced protein tyrosine phosphorylation in liver of ob/ob mice at 25 mg/kg perorally; type: functional; conditions: route oral

| SMILES | Insulin lowering effect [1] [%] | IC50 [2] [µM] | Insulin lowering effect [3] [%] |
| --- | --- | --- | --- |
| Cc1oc2cc3sc4ccccc4c3c(-c3cc(I)c(O[C@H](Cc4ccccc4)C(=O)O)c(I)c3)c2c1C | 43 |  |  |
| O=C(O)[C@@H](Cc1ccccc1)Oc1c(I)cc(-c2c3ccccc3cc3sc4ccccc4c23)cc1I |  | 0.179 | 68 |

— ChEMBL document CHEMBL1133228, “Synthesis and PTP1B inhibition of novel 4-aryl-1-oxa-9-thiacyclopenta[b]fluorenes” (Bioorg Med Chem Lett, 2000)
